Source: publication PMC7136958, “Targeting the pregnane X receptor using microbial metabolite mimicry” (EMBO Molecular Medicine, 2020)
“And” between values parts separate entries of the source, which are not always exact repeats. Equal values may be shown once.

How the values were obtained:
IL-8 mRNA = assay: TNF-α-induced IL-8 mRNA in human colonic enteroids (Calgary Protocol); type: cell-based; details: 10 μM, pair-wise vs DMSO
Experimental: Samples were immediately processed to yield isolated colonic crypts as previously described (Fernando et al, 2017). Isolated colonic crypts were embedded in Matrigel® (Corning) and cultured in Intesticult^tm Organoid Growth Media. Human organoids were pretreated for 6 h with either FKK5, FKK6, FKK9, or vehicle (DMSO), then stimulated with human recombinant TNF‐alpha in the presence of either treatment for an additional 12 h. Organoids were washed in PBS, disrupted in Tri Reagent® (Sigma, Oakville, ON, CAN), and frozen at −80°C. After thawing, chloroform was added, samples were centrifuged for 15 min, and the resulting aqueous phase was then added to equal volumes of 70% ethanol and further processed using the RNeasy mini kit (Qiagen). cDNA was synthesized using the QuantiTect RT kit (Qiagen) according to the manufacturer's protocol. Resulting cDNA was used as a template for quantitative real‐time PCR using Perfecta SYBR Green FastMix with ROX (QuantaBio). PCR and analysis were performed using a StepOne PCR System (Applied Biosystems). Gene expression was calculated relative to β‐actin expression and expressed as fold change of control. The primers used were as follows: Human®‐Actin (NM_001101), Human CYP3A4 (NM_001202855), and Human ABCB1 (NM_000927).

PXR [1] = target: T1, PXR (Homo sapiens, UniProt O75469); assay: PXR reporter (p3A4-luc luciferase) assay in LS180 cells transiently transfected with wild-type PXR; details: for FOLD INDUCTION of PXR reporter luciferase activity: 24 h, over UT
T1 sequence (O75469 1-434): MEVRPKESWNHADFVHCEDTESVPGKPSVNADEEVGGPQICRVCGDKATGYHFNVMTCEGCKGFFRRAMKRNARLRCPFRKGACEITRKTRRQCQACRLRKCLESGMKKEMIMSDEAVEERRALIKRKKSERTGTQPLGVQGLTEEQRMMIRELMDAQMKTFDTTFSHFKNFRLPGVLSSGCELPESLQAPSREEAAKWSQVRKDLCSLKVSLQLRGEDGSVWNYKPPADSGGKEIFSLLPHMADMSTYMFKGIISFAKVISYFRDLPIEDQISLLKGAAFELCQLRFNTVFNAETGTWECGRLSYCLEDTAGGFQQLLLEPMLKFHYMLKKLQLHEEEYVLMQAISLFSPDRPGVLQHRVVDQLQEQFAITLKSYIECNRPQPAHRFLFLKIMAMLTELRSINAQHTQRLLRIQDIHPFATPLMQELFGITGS
Experimental: Incubations were performed in four technical replicates. After the treatments, cells were lysed and luciferase activity was measured on Tecan Infinite M200 Pro plate reader (Schoeller Instruments, Prague, Czech Republic). The data are expressed as fold induction ± SD of luciferase activity over the control cells (agonistic mode—in the absence of a model ligand) or as a percentage of maximal activation ± SD (antagonistic mode—in the presence of a model ligand). […] For all the transfection experiments, specifically multiplexed transfections, the control wells were mock‐transfected ([…]). However, to exclude non‐specific binding of PXR (or other factors) upstream of the luciferase gene within non‐PXR‐binding elements, we performed pilot experiments in different cell passages (P11, P14, and P17) of LS174T cells using a mock luciferase plasmid (luciferase not containing an upstream PXR‐binding element of the CYP3A4 promoter).

AhR = target: T2, AhR (Homo sapiens, UniProt P35869); assay: AhR reporter assay, HepG2 cells stably expressing pCYP1A1 luciferase (AZ-AHR); type: cell-based; details: for FOLD INDUCTION (AZ-AHR luciferase): AZ-AHR cells, fold vs DMSO
T2 construct: endogenous in cells; host or cells: AZ-AHR (HepG2)
T2 sequence (P35869 11-848): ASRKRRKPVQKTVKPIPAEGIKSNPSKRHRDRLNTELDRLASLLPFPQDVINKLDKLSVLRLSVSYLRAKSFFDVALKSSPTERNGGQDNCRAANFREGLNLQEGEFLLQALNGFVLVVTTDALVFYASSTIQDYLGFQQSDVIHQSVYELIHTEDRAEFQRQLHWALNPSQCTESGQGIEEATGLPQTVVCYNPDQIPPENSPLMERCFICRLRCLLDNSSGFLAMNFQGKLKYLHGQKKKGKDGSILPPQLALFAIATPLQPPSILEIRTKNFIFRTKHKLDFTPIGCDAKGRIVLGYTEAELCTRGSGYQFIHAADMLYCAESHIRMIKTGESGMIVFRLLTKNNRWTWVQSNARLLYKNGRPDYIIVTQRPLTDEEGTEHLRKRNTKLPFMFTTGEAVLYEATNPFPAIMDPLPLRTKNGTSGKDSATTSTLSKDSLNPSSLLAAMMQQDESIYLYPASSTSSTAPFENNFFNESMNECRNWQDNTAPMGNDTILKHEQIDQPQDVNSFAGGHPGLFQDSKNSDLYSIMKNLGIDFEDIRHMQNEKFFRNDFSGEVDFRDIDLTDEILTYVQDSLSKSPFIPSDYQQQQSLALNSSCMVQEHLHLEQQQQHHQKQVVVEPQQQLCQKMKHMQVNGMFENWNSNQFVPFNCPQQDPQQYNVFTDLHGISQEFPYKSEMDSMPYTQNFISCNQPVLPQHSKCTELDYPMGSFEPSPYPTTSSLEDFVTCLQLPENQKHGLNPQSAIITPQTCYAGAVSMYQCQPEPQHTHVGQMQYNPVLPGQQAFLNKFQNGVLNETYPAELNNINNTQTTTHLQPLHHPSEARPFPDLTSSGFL
Experimental: Incubations were performed in four technical replicates.

[2] = test system: PXR occupancy of CYP3A4 and MDR1 promoter; assay: Chromatin immunoprecipitation (ChIP) in PXR-transfected LS174T cells; details: 10 μM; relative to DMSO = 1; each column a repeat experiment (Fig 1d)
Experimental: LS174T cells were transfected with pSG5‐PXR (2 μg/plate/1 × 10^7 cells). […] Briefly, cells were chemically cross‐linked with formaldehyde in culture media for 15 min at room temperature. […] Cells were rinsed twice with cold PBS (phosphate‐buffered saline) (pH 7.5) and scraped in PBS supplemented with PIC (protease inhibitor cocktail).
Cell pellets were collected and immediately resuspended in immunoprecipitation (IP) buffer (150 mM NaCl (sodium chloride), 50 mM Tris–HCl at pH 7.5, 5 mM EDTA (ethylenediaminetetraacetic acid), 0.5% NP‐40, 1% Triton X‐100). The nuclei were centrifuged at 12,000 × g for 1 min and resuspended in fresh IP buffer. Chromatin was sheared by sonication to an average size of 0.2‐0.9 kb. Lysates were cleared by centrifugation at 12,000 × g for 10 min. […] 10% (wt/vol) Chelex 100 was added to the beads followed by boiling of the suspension and centrifugation at 12,000 × g for 1 min to obtain chromatin.
Purified chromatin DNA was used to perform RT–qPCR. […] Data were analyzed using SDS 2.2.1 program (ABI Biotechnology).

PXR [3] = target: T1, PXR; assay: Ligand efficiency metric (LEM) analysis; set-up: expressed in transfected cells; host or cells: LS180; details: NSEI-nBEI plane, from PXR reporter Emax
Text: Ligand efficiency metric (LEM) analysis for FKK ligand efficiency. The ligand efficiency metrics (LEMs) of compounds FKK1 to 10 and FKK999 as a reference compound, have been analyzed by using a web tool named AtlasCBS which represents LEMs as variables for a Cartesian mapping of chemico-biological space (CBS). In particular, Cartesian planes combine three critical variables in drug discovery (affinity, size, and polarity) into easily interpretable ‘efficiency planes’ useful to guide a drug discovery process. In the Cartesian plane, each target:ligand pair appears as a point whose coordinates are given by pairs of values derived from the affinity of the ligand toward the target (Ki or equivalent) in relation to its size (MW or number of non-hydrogen atoms NHA), and its polarity (expressed as Polar Surface Area, PSA, or number of polar atoms, NPOL = count of N + O). The first one represents a size-related LEM and the second a polarity-related LEM. Consistently, compounds that correspond to marketed drugs typically occupy the upper right quadrant of the plots (‘Nort h-East’ direction, NE), where both the efficiency -pe r-size and efficiency -per-polarity are optimized 1,2.
Our results are represented in the efficiency plane NS EI-nBEI where:
NSEI = –log Ki/NPOL (N, O) = pKi/NPOL (N, O)
As a measure of activity of the above compounds, the reciprocal of the percentage efficacy values (1/Efficacy [%]) obtained in the PXR-dependent luciferase activity test (Emax values from Fig. 1) were used in lieu of the affinity constants (Ki in the above equations). FKK4 would appear as the most efficient compound since it is placed in the NE panel (GL, unpublished observations). However, this congener might suffer from metabolic liability with its N-protecting group possibly generating toxic aldehydes by oxidative cleavage in vivo. Unambiguously, the two most efficient compounds besides FKK4 are FKK5 and FKK6 which were therefore considered suitable lead compounds, as al so

rats = test system: rats; set-up: method as in Thermo Fisher Scientific Safety Sheet data; details: oral in rats; ref Thermo Fisher Scientific Safety Sheet data; cited from earlier work

CCOCn1c(C(O)(Cc2cc3ccccc3[nH]2)c2ccncc2)cc2ccccc21 (racemic) [FKK9]
TNF-α-induced IL-8 mRNA levels (IL-8 mRNA): did not show significant effects | aver (mean luciferase signal of H1-H4) (PXR [1]; 1 nM): 4233.7 | FOLD INDUCTION of PXR reporter luciferase activity (PXR [1]; 1 nM): 1.1 fold | aver (mean luciferase signal of H1-H4) (PXR [1]; 10 nM): 4676.8 | FOLD INDUCTION of PXR reporter luciferase activity (PXR [1]; 10 nM): 1.2 fold | aver (mean luciferase signal of H1-H4) (PXR [1]; 100 nM): 5944.0 | FOLD INDUCTION of PXR reporter luciferase activity (PXR [1]; 100 nM): 1.6 fold | aver (mean luciferase signal of H1-H4) (PXR [1]; 1 uM): 19145.3 | FOLD INDUCTION of PXR reporter luciferase activity (PXR [1]; 1 uM): 5.0 fold | aver (mean luciferase signal of H1-H4) (PXR [1]; 10 uM): 98175.8 | FOLD INDUCTION of PXR reporter luciferase activity (PXR [1]; 10 uM): 25.8 fold | aver (mean luciferase signal of H1-H4) (PXR [1]; 25 uM): 68593.5 | FOLD INDUCTION of PXR reporter luciferase activity (PXR [1]; 25 uM): 18.0 fold | AhR activation (AhR; 10 μM): > 100 fold | FOLD INDUCTION (AZ-AHR luciferase) (AhR; 1 nM): 0.6 fold | FOLD INDUCTION (AZ-AHR luciferase) (AhR; 10 nM): 0.4 fold | FOLD INDUCTION (AZ-AHR luciferase) (AhR; 100 nM): 1.3 fold | FOLD INDUCTION (AZ-AHR luciferase) (AhR; 1µM): 15.9 fold | FOLD INDUCTION (AZ-AHR luciferase) (AhR; 10 µM): 584.9 fold | CYP3A4 Fold Expression (2-ΔΔCt) [2]: 0.943 and 0.9893 and 1.172 and 1.777

CC#CC(O)(c1ccncc1)c1cc2ccccc2n1COCC (stereo not shown) [FKK4]
aver (mean luciferase signal of H1-H4) (PXR [1]; 1 nM): 4365.5 | FOLD INDUCTION of PXR reporter luciferase activity (PXR [1]; 1 nM): 1.4 fold | aver (mean luciferase signal of H1-H4) (PXR [1]; 10 nM): 4279.3 | FOLD INDUCTION of PXR reporter luciferase activity (PXR [1]; 10 nM): 1.3 fold | aver (mean luciferase signal of H1-H4) (PXR [1]; 100 nM): 5499.3 | FOLD INDUCTION of PXR reporter luciferase activity (PXR [1]; 100 nM): 1.7 fold | aver (mean luciferase signal of H1-H4) (PXR [1]; 1 uM): 21392.8 | FOLD INDUCTION of PXR reporter luciferase activity (PXR [1]; 1 uM): 6.7 fold | aver (mean luciferase signal of H1-H4) (PXR [1]; 10 uM): 102793.8 | FOLD INDUCTION of PXR reporter luciferase activity (PXR [1]; 10 uM): 32.2 fold | aver (mean luciferase signal of H1-H4) (PXR [1]; 25 uM): 122639.5 | FOLD INDUCTION of PXR reporter luciferase activity (PXR [1]; 25 uM): 38.4 fold | AhR activation (in words) (AhR): variable degrees of dose‐dependent AhR activation profiles | FOLD INDUCTION (AZ-AHR luciferase) (AhR; 1 nM): 0.8 fold | FOLD INDUCTION (AZ-AHR luciferase) (AhR; 10 nM): 0.644 fold | FOLD INDUCTION (AZ-AHR luciferase) (AhR; 100 nM): 0.8 fold | FOLD INDUCTION (AZ-AHR luciferase) (AhR; 1µM): 1.2 fold | FOLD INDUCTION (AZ-AHR luciferase) (AhR; 10 µM): 7.1 fold | LEM analysis prediction (PXR [3]): efficient agonist

c1ccc2[nH]ccc2c1 [indole]
LD50 (rats): ~ 1 g/kg
